Measurements as given in patent US9993001B2, “Herbicidal composition” (ISHIHARA SANGYO KAISHA, LTD., priority 2014, dated 2018).

Key:
Format in all cases: in vivo
[1] = system: barnyardgrass (Echinochloa crus-qalli L.); experiment: Test Example 21: pot, soil treatment, metobromuron + prometryn; conditions: soil, read-out: Growth inhibition rate of barnyardgrass (%) Measured value
Text: (§1) When the herbicidal activity in a case where two active ingredients are combined, is larger than the simple sum of the respective herbicidal activities of the two active ingredients (the expected activity), it is called a synergistic effect. The activity expected by the combination of two active ingredients can be calculated as follows (Colby S. R., “Weed”, vol. 15, p. 20-22, 1967). E=α+β−(α×β[…]) where α: growth inhibition rate when treated with x (g/ha) of herbicide X, • β: growth inhibition rate when treated with y (g/ha) of herbicide Y, • E: growth inhibition rate expected when treated with x (g/ha) of herbicide X and y (g/ha) of herbicide Y.
(§2) On the 19th day after treatment, the state of growth of barnyardgrass was visually observed and evaluated in accordance with the following standards. The growth inhibition rate (%) [measured value] and the growth inhibition rate (%) [calculated value] calculated by the Colby's method, are shown in Table 2.
(§3) Growth inhibition rate (%)=inhibition rate) (%) of 0 (equivalent to the non-treated area) to 100 (complete kill)
(§4) Soil was put into a 1/300,000 ha pot, and seeds of barnyardgrass (Echinochloa crus-qalli L.) were sown. On the day after seeding, predetermined amounts of SC containing metobromuron as active ingredient (same as in Test Example 1) and WP containing prometryn as active ingredient (trade name: Gesagard 50, manufactured by Nippon Kayaku Co., Ltd.) were diluted with water corresponding to 1,000 L per hectare and applied for soil treatment.
(§5) On the 21st day after treatment, the state of growth of barnyardgrass was visually observed and evaluated in the same manner as in Test Example 1.

[2] = system: black nightshade (Solanum nigrum L.); experiment: Test Example 17: pot, soil treatment, metobromuron + chlorpropham; conditions: soil, read-out: Growth inhibition rate of black nightshade (%) Measured value
Text: as §1, §2, §3
as §4, with “crus-galli” for “crus-qalli”, “EC” for “WP”, “chlorpropham” for “prometryn”, “(same as in Test Example 1)” for “(trade name: Gesagard 50, manufactured by Nippon Kayaku Co., Ltd.)”
as §5
The test was carried out in the same manner as in Test Example 15 except that barnyardgrass (Echinochloa crus-galli L.) was changed to black nightshade (Solanum nigrum L.), to obtain the results as shown in Table 18.

[3] = system: black nightshade (Solanum nigrum L.); experiment: Test Example 23: pot, soil treatment, metobromuron + fluazifop-P-butyl; conditions: Solanum nigrum, soil, read-out: Growth inhibition rate of black nightshade (%) Measured value
Text: as §1, §2, §3
Soil was put into a 1/300,000 ha pot, and seeds of black nightshade (Solanum nigrum L.) were sown. […]
On the 20th day after treatment, the state of growth of black nightshade was visually observed and evaluated in the same manner as in Test Example 1.

[4] = system: common lambsquarters (Chenopodium album L.); experiment: Test Example 20: pot, soil treatment, metobromuron + chlorpropham; conditions: soil, read-out: Growth inhibition rate of common lambsquarters (%) Measured value
Text: as §1, §2, §3
as §4, with “crus-galli” for “crus-qalli”, “EC” for “WP”, “chlorpropham” for “prometryn”, “(same as in Test Example 1)” for “(trade name: Gesagard 50, manufactured by Nippon Kayaku Co., Ltd.)”
On the 26th day after treatment, the state of growth of barnyardgrass was visually observed and evaluated in the same manner as in Test Example 1.
The test was carried out in the same manner as in Test Example 18 except that barnyardgrass (Echinochloa crus-galli L.) was changed to common lambsquarters (Chenopodium album L.), to obtain the results as shown in Table 21.

[5] = system: large crabgrass (Digitaria sanquinalis L.); experiment: Test Example 28: pot, soil treatment, metobromuron + pendimethalin; conditions: soil, read-out: Growth inhibition rate of large crabgrass (%) Measured value
Text: as §1, §2, §3
Soil was put into a 1/300,000 ha pot, and seeds of large crabgrass (Digitaria sanquinalis L.) were sown. On the day after seeding, predetermined amounts of SC containing metobromuron as active ingredient (same as in Test Example 1) and EC containing pendimethalin as active ingredient (same as in Test Example 10) were diluted with water corresponding to 1,000 L per hectare and applied for soil treatment.
On the 27th day after treatment, the state of growth of large crabgrass was visually observed and evaluated in the same manner as in Test Example 1.

[6] = system: velvetleaf (Abutilon theophrasti MEDIC.); experiment: Test Example 13: pot, soil treatment, metobromuron + pyroxasulfone; conditions: soil, read-out: Growth inhibition rate of velvetleaf (%) Measured value
Text: as §1, §2, §3
Soil was put into a 1/300,000 ha pot, and seeds of velvetleaf (Abutilon theophrasti MEDIC.) were sown. Prior to germination of velvetleaf, predetermined amounts of SC containing metobromuron as active ingredient (same as in Test Example 1) and WG containing pyroxasulfone as active ingredient (trade name: Sakura 850 WG, manufactured by Bayer CropScience) were diluted with water corresponding to 1,000 L per hectare and applied for soil treatment.
On the 12th day after treatment, the state of growth of velvetleaf was visually observed and evaluated in the same manner as in Test Example 1.

In the case of `CON(C)C(=O)Nc1ccc(Br)cc1` [Metobromuron, 3-(4-bromophenyl)-1-methoxy-1-methylurea], the inhibition at 750 g/ha [1] is reported as 20%, the inhibition at 1000 g/ha [1] is reported as 43% and the inhibition at 1500 g/ha [1] is reported as 72%. The inhibition at 1000 g/ha [2] was 78%, the inhibition at 750 g/ha [3] was 85% and the inhibition at 188 g/ha [4] was 50%. The inhibition at 62.5 g/ha [5] was 0%, the inhibition at 125 g/ha [5] was 15% and the inhibition at 250 g/ha [5] was 35%. For the same molecule, the inhibition at 375 g/ha [6] was 28%, the inhibition at 750 g/ha [6] was 55% and the inhibition at 1500 g/ha [6] was 74%.
